From paper PMC4832822, “Investigating the Influence of (Deoxy)fluorination on the Lipophilicity of Non‐UV‐Active Fluorinated Alkanols and Carbohydrates by a New log P Determination Method” (Angewandte Chemie (International Ed. in English), 2015)
“And” between values parts separate entries of the source, which are not always exact repeats. Equal values may be shown once. Read-outs that look alike come from different tables or passages of the source.

Tests used:
[1] = milogP calculated using Molinspiration Cheminformatics; conditions: Table SI14
[2] = log P determination by 19F NMR shake-flask method with internal fluorinated reference (octanol/water); conditions: for ΔlogP (exp. logP vs logP lit): Table SI12
[3] = cited from earlier work
[4] = physchem
[5] = octanol/water, logP, 19F NMR, 25 °C, average value
[6] = method and temperature not provided, ref U.S. National Library of Medicine online database (chemidplus)
[7] = octanol/water, error (mean logP to three decimals), reference TFE (+0.36)
[8] = octanol/water, logP, single experiment, reference TFE (+0.36)
[9] = Average logP, 25 °C, reference TFE (+0.36)
[10] = error (mean logP to three decimals)
[11] = logP, octanol/water, 19F NMR, 25 °C, average value
[12] = logP, single experiment, reference TFE (+0.36)
[13] = octanol/water, Average logP, 25 °C, reference TFE (+0.36)
[14] = single experiment, reference TFE (+0.36)
[15] = octanol/water, Average logP, reference 4,4,4-trifluoro-1-butanol (TB, +0.91EXP)
[16] = octanol/water, error (mean logP to three decimals), reference TB (+0.91EXP)
[17] = octanol/water, logP, single experiment, reference 4,4,4-trifluoro-1-butanol (TB, +0.91EXP)
[18] = octanol/water, Average logP, 25 °C, reference FE (-0.75)
[19] = octanol/water, error (mean logP to three decimals), reference FE (-0.75)
[20] = single experiment, reference FE (-0.75)

Structure (SMILES) | ΔlogP (milogP vs logP exp) [1] | logP [2, 5] | logP [2, 7] | logP [2, 8] | logP [2, 13] | further results
CCCC(C)O (stereo not shown) [G, 2-PentOH, reference compound] |  |  |  |  |  | logP (lit) [3, 6]: +1.19
CC(C)(C)[C@H]1CC[C@H](O)CC1 [K, reference compound] |  |  |  |  |  | logP (lit) [3, 6]: +3.09
CC(C)(C)[C@H]1CC[C@@H](O)CC1 [L, reference compound] |  |  |  |  |  | logP (lit) [3, 6]: +3.02
Oc1ccccc1F [SI4, o-fluorophenol] | +0.13 | 1.7 | 1.7 | 1.7 |  | logP (lit) ([3]; method and temperature not provided, ref C. Hansch, A. Leo, Substituent constants, Wiley 1979): +1.64; logP (lit) ([3]; ref chemidplus database, Hansch, Leo 1979 and Fujita, Iwasa, Hansch 1964 (shake-flask, spectrophotometer, 25 ± 5 °C)): +1.71
OCC(F)(F)F [compound 3, 2,2,2-Trifluoroethanol] | +0.25 |  |  |  |  | 
OC(CF)CF [compound 4] |  |  |  |  |  | logP [4, 9]: -0.42; logP [4, 10]: -0.421; logP [4, 11]: -0.42; logP [4, 12]: -0.42; Average logP ([2]; 25 °C, reference TFE (+0.36)): -0.42
OC(C(F)(F)F)C(F)(F)F [compound 7] |  |  | 1.69 | 1.69 | 1.69 | logP (lit) [3, 6]: +1.66; ΔlogP (exp. logP vs logP lit) [2]: +0.03
OCCC(F)F [compound 10] | +0.48 |  | 0.038 | 0.033 | 0.04 | 
CC(O)(C(F)(F)F)C(F)(F)F [compound 15] |  |  |  |  |  | logP [4, 10]: 2.08; logP ([4]; logP): 2.08
CC(O)CCF (stereo not shown) [compound 16] |  |  |  |  |  | logP ([4]; Average logP): 0.08; logP [4, 10]: 0.084; logP ([4]; logP): 0.077
CC(O)C(F)(F)C(F)F (stereo not shown) [compound 19] |  |  |  |  |  | logP ([4]; Average logP): 1.05; logP [4, 10]: 1.05; logP ([4]; logP): 1.05
CC(O)C(F)(F)C(F)(F)F (stereo not shown) [compound 20] |  |  |  |  |  | logP ([4]; Average logP): 1.53; logP [4, 10]: 1.53; logP ([4]; logP): 1.53
OCCCCF [compound 21] |  |  |  |  |  | logP [4, 9]: 0.09; logP ([4]; error (mean logP to three decimals), reference TFE (+0.36)): 0.09; logP ([4]; logP): 0.092; logP [4, 11]: 0.09; logP [4, 12]: 0.09
OCCC(F)(F)C(F)(F)F [compound 24] |  |  |  |  |  | logP ([4]; Average logP): 1.3; logP [4, 10]: 1.3; logP ([4]; logP): 1.29
OCCCCCF [compound 30, 5-fluoro-1-pentanol] |  |  |  |  |  | logP ([4]; Average logP): 0.52; logP [4, 10]: 0.524; logP ([4]; logP): 0.524
OCCCC(F)(F)C(F)F [compound 34, 4,4,5,5-tetrafluoropentan-1-ol] |  |  |  |  |  | logP ([4]; Average logP): 0.97; logP [4, 10]: 0.974; logP ([4]; logP): 0.971
OCCCC(F)(F)C(F)(F)F [compound 36] |  |  |  |  |  | logP ([4]; Average logP): 1.72; logP [4, 10]: 1.72; logP ([4]; logP): 1.73
OC[C@H](F)[C@@H](F)CO [compound 39] | +0.63 |  |  |  |  | logP [2, 18]: -1.01; logP [2, 19]: -1.01; logP [2, 20]: -1.006 and -1.012
OC[C@@H](F)[C@@H](F)CO [compound 40] | +0.59 |  |  |  |  | logP [2, 18]: -0.97; logP ([2]; octanol/water, Average logP, internal validation, reference -1.01EXP): -0.98; logP ([2]; octanol/water, error (mean logP to three decimals), internal validation, reference -1.01EXP): -0.98; logP [2, 19]: -0.968; logP ([2]; single experiment, internal validation, reference -1.01EXP): -0.981 and -0.984 and -0.975; logP [2, 20]: -0.957
OCC(F)(F)C(F)(F)CO [compound 41] |  |  |  |  |  | logP ([4]; Average logP): -0.11; logP [4, 10]: -0.109
O=C[C@H](O)[C@@H](F)[C@@H](O)[C@H](O)CO [compound 46, 3-Fluoro-3-deoxy-D-galactose] | +0.32 | -2.47 |  |  |  | 
O=C[C@H](F)[C@@H](O)[C@@H](O)[C@H](O)CO [compound 47, 2-Fluoro-2-deoxy-D-galactose] | +0.44 | -2.37 |  |  |  | 
O=C[C@H](O)[C@@H](O)[C@H](O)[C@H](O)CF [compound 48, 6-Fluoro-6-deoxy-D-glucose] | +0.65 | -2.36 |  |  |  | 
O=C[C@H](F)[C@@H](O)[C@H](O)[C@H](O)CO [compound 49, 2-Fluoro-2-deoxy-D-glucose] | +0.28 | -2.21 |  |  |  | 
O=C[C@@H](F)[C@@H](O)[C@H](O)[C@H](O)CO [compound 50, 2-Fluoro-2-deoxy-D-mannose] |  | -2.11 |  |  |  | 

More lines, main results first:

ΔlogP (milogP vs logP exp) [1] | logP [2, 5] | logP [2, 7] | logP [2, 8] | logP [2, 13] | Structure (SMILES) | further results
+0.07 | 2.63 |  |  |  | CC(C)(C)[C@H]1CC[C@H](O)[C@H](F)C1 (relative stereo) [compound 42] | 
 | 2.61 |  |  |  | CC(C)(C)[C@H]1CC[C@H](O)[C@@H](F)C1 (relative stereo) [compound 43] | 
-0.51 | 3.21 |  |  |  | CC(C)(C)[C@H]1CC[C@@H](O)[C@H](F)C1 (relative stereo) [compound 44] | 
+0.27 | 0.7 | 0.715 | 0.712 | 0.71 | CC(O)C(F)(F)F (stereo not shown) [compound 6] | logP (lit) ([3]; ref chemidplus database, Dillingham et al. 1973 and Hansch, Leo 1979): +0.71; logP (lit) ([3]; shake-flask, 1H or 19F NMR, temperature not reported, ref N. Muller, J. Pharm. Sci. 1986): +0.70
+0.59 | 0.11 | 0.11 | 0.113 | 0.11 | CC(F)(F)CO [compound 11] | 
+0.47 |  | 0.414 | 0.413 | 0.41 | OCCC(F)(F)F [compound 12] | logP (lit) ([3]; ref chemidplus database and N. Muller 1986): +0.39; ΔlogP (exp. logP vs logP lit) [2]: +0.02
+0.39 |  | 1.03 | 1.03 | 1.03 | CC(C)(O)C(F)(F)F [compound 14] | 
+0.46 | 0.42 | 0.417 | 0.42 | 0.42 | CC(O)CC(F)F (stereo not shown) [compound 17] | 
+0.53 | 0.71 | 0.721 | 0.725 | 0.72 | CC(O)CC(F)(F)F (stereo not shown) [compound 18] | ΔlogP (exp. logP vs logP lit) [2]: +0.01
 |  | 0.173 | 0.166 | 0.17 | CC(F)CCO (stereo not shown) [compound 22, 3-fluorobutan-1-ol] | 
+0.49 |  | 0.477 | 0.476 | 0.48 | C[C@H](O)C[C@@H](C)F [compound 26] | logP [2, 14]: +0.476
+0.40 | 0.57 | 0.569 | 0.57 | 0.57 | C[C@H](O)C[C@H](C)F [compound 27] | 
+0.67 |  | 0.662 | 0.659 | 0.66 | CC(O)CC(C)(F)F (stereo not shown) [compound 28] | 
 |  | 1.82 | 1.83 | 1.82 | CCCC(O)C(F)(F)F (stereo not shown) [compound 29, 1,1,1-trifluoropentan-2-ol] | 
 |  | 0.522 | 0.517 | 0.52 | CC(F)CCCO (stereo not shown) [compound 31, 4-fluoropentan-1-ol] | 
 |  | 0.708 | 0.712 | 0.71 | CC(F)(F)CCCO [compound 32, 4,4-difluoropentan-1-ol] | logP [2, 14]: +0.712
 |  | 0.868 | 0.872 | 0.87 | CCCC(F)CO (stereo not shown) [compound 33, 2-fluoropentan-1-ol] | logP ([2]; multiple acquisitions of one sample (Table SI7), single acquisition, reference 2,2,2-trifluoroethanol): 0.5206 and 0.5160 and 0.5224 and 0.5294 and 0.5210 and 0.5213; logP ([2]; multiple reprocessing of one FID (Table SI8), single reprocessing): 0.5205 and 0.5167 and 0.5166 and 0.5215 and 0.5186; logP ([2]; octanol/water, logP Average, seven acquisitions (Table SI7)): 0.521; logP ([2]; octanol/water, logP Average, seven reprocessings (Table SI8)): 0.518; logP ([2]; octanol/water, logP, multiple acquisitions of one sample (Table SI7), single acquisition, reference 2,2,2-trifluoroethanol): 0.517; logP ([2]; octanol/water, logP, multiple reprocessing of one FID (Table SI8), single reprocessing): 0.513
+0.40 | 1.58 |  |  |  | CC[C@H](O)C[C@H](F)CC [compound 37] | logP [2, 15]: 1.58; logP [2, 16]: 1.58; logP [2, 17]: 1.58
+0.27 | 1.71 |  |  |  | CC[C@H](O)C[C@@H](F)CC [compound 38] | logP [2, 15]: 1.71; logP [2, 16]: 1.71; logP [2, 17]: 1.69
 | 2.23 |  |  |  | CC(C)(C)C1CCC(O)CC1F (stereo not shown) [compound 45] | 
 | -1.45 |  |  |  | OC[C@H]1OC(O)C[C@@H](F)[C@@H]1O (stereo partly drawn) [compound 51, 2,3-Dideoxy-3-fluoro-D-glucopyranose] | 
 | -1.11 |  |  |  | OC[C@H]1OC(O)[C@H](F)[C@@H](F)[C@@H]1O (stereo partly drawn) [compound 52, 2,3-Dideoxy-2,3-difluoro-D-glucopyranose] | logP ([2]; octanol/water, log P units more lipophilic than Glc, relative to glucose): ~2.1; logP ([2]; octanol/water, logP, single experiment, reference FE (-0.75)): -1.11
+0.07 |  | -0.576 |  | -0.58 | OC[C@H]1OC(O)C(F)(F)C(F)(F)[C@H]1O (stereo partly drawn) [compound 53, 2,3-Dideoxy-2,2,3,3-tetrafluoro-D-threo-hexopyranose] | logP [2, 14]: -0.574 and -0.573 and -0.583
 |  |  | -0.316 | -0.32 | OC[C@H]1OC(O)C(F)(F)C(F)(F)[C@@H]1O (stereo partly drawn) [compound 54, 2,3-Dideoxy-2,2,3,3-tetrafluoro-D-erythro-hexopyranose] | 
